# In patent US7897568B2, “Compositions for treatment of cancer” (priority 2006, dated 2011):
# Where a SMILES comes first, the peptide text is derived from it. Where no end group is shown, it is not given here.
# How the values were obtained:
# [1] = target: T1, GST-SNCG (Homo sapiens, UniProt O76070); assay: Isothermal titration calorimetry of ANK peptide into GST-SNCG; conditions: ITC, first binding site
# T1 construct: The SNCG coding region was amplified from the human cDNA clone; made in house; host or cells: Escherichia coli BL21 (DE3)
# T1 sequence (O76070 whole entry): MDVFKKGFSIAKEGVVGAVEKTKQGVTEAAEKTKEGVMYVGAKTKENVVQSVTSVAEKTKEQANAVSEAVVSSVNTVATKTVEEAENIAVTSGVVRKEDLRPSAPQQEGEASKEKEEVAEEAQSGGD
# Protocol: The heat of dilution was measured by titrating ANK peptide in buffer alone. This was generally small and subtracted from each binding titration curve.
# Titration calorimetry measurements were performed with a VP-ITC calorimeter (Microcal, Northampton, Mass.). The protein solution for ITC was dialyzed extensively overnight against 10 mM phosphate buffer, pH 7.0. The peptide solution was prepared by diluting with the buffer used for the protein dialysis. Injections (6 μl×50) of peptide (400 μM) were done by means of a rotating stirrer-syringe to the reaction cell, containing 1.43 ml of the 50 μM protein solution. The heat of dilution was determined to be negligible in separate titrations of the ligand into the buffer solution. Calorimetric data analysis was carried out with ORIGIN 5.0 software (MicroCal). Binding parameters such as the number of binding sites, the binding constant, and the binding enthalpy of bound ligand were determined by fitting the experimental binding isotherms.
# [2] = target: GST (Schistosoma japonicum, UniProt P08515); assay: Surface plasmon resonance control with GST as analyte; format: binding; conditions: SPR, GST as the analyte
# GST, sequence (P08515 whole entry): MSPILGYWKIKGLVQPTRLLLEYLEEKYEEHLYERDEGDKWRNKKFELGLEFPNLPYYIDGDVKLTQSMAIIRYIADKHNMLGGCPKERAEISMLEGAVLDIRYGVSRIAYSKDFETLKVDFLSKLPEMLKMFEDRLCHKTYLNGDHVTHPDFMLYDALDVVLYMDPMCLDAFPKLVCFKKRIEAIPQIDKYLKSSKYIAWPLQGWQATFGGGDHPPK
# Protocol: (§1) Kinetics of the SNCG-ANK interaction were determined. […] Sensograms were deconvoluted globally, using a simultaneous fit for both association (ka, M^−1s^−1) and dissociation (kd, s^−1).
# (§2) The binding interaction between the ANK peptide and GST-SNCG was examined in real time using a BIACORE 3000 biosensor system (Biacore Inc., NJ). Because of the relatively large amount required in this experiment, GST-SNCG, which expresses at least 2 times better than SNCG, was used. […] The changes in the refractive index at the sensor chip surface with respect to time are scaled in resonance units (RU). For proteins, every 1000 RU corresponds to a surface mass change of ˜1 ng/mm^2. All experiments were performed at 25° C. using research grade carboxymethylated dextran matrix (CM5) sensor chips (Biacore Inc.). […] Prior to all analyses the GST-SNCG and ANK peptide preparations were dialyzed against the running buffer to minimize bulk effects. Blank analyte injections (running buffer only) were subtracted from the specific binding isotherms to further minimize instrument noise.
# [3] = target: T1, GST-SNCG; assay: Surface plasmon resonance, immobilized ANK peptide with GST-SNCG analyte; format: binding; conditions: global fit, two-phase reaction (conformation change) model, 25° C.
# Protocol: as §1
# as §2, with “Blank analyte injections (running buffer only) were subtracted from the specific binding isotherms to further minimize instrument noise.” left out
# In all cases the analyte binding measurements were performed using running buffer 2 (running buffer 1 plus 0.1% P20 surfactant). […] Data was analyzed using BIAevaluation 3.1 software (Biacore Inc.). The data was analyzed globally, using a simultaneous fit for both association (ka, M^−1s^−1) and dissociation (kd, s^−1). The KD (M) value was calculated as kd/ka.
# [4] = tested on: MCF7-SNCG cells; assay: Flow cytometry (PI cell cycle and anti-phospho-H3) after paclitaxel; format: cell-based; conditions: 0.5 μM paclitaxel
# Protocol: (§3) FIG. 7A through D show expression of EGFP-ANK disrupting the SNCG-mediated inhibition of mitotic checkpoint function as measured by microscopy and flow cytometry. The bar graphs show the expression of EGFP-ANK disrupting the SNCG-mediated inhibition of mitotic checkpoint function, using (FIG. 7A) DAPI and (FIG. 7B) anti-phospho-H^3 staining. For graphs of FIGS. 7A and 7B, the cells treated with 0.5 μM paclitaxel for 18 hours or untreated control cells were fixed with 4% paraformaldehyde for 20 minutes at room temperature. In both cases, the cells were then stained with 1 μg/ml of DAPI or 2 μg/ml anti-phospho-H3 primary and Texas Red goat anti-rabbit secondary antibodies (Invitrogen). Green fluorescent cells were identified for positive transfected cells. For each sample, 200-300 cells randomly chosen from 5 different views under a Nikon fluorescent microscope were scored for interphase, mitotic, or apoptotic based upon nuclei morphology. The data shown were derived from three separate transfections (p<0.01). […]
# (§4) Two days after transfection, cells were exposed to paclitaxel for 18 hours and numbers of mitotic arrested and apoptotic cells were counted after DAPI staining. […] These cells were also probed with rabbit polyclonal anti-phospho-H^3 and the mitotic index was calculated according to the proportion of the number of H^3 stained EGFP positive cells to total EGFP positive cells (FIG. 7B). […]
# [5] = tested on: MCF7-SNCG cells; assay: Mitotic index and apoptosis by DAPI staining after paclitaxel; format: cell-based; conditions: SNCG cells expressing EGFP-ANK versus pEGFP, paclitaxel 18 hours
# Protocol: as §3, §4
Compound,ΔH [1] [kcal/mol],binding of GST analyte to immobilized ANK peptide [2],kd1 [3] [s⁻¹],kd2 [3] [s⁻¹],increase in positive phosphorylated histones (anti-phospho-H3 staining) ([4]; versus MCF7-SNCG cells not containing EGFP-ANK),"increase in apoptotic/dead cell population ([4]; cell cycle analysis, versus control vector pEGFP)",increase in the number of mitotic arrested cells [5] [fold]
CC[C@H](C)[C@H](NC(=O)[C@H](CS)NC(=O)CNC(=O)[C@H](CC(C)C)NC(=O)[C@H](Cc1c[nH]cn1)NC(=O)CNC(=O)[C@H](Cc1c[nH]cn1)NC(=O)[C@H](CCC(N)=O)NC(=O)[C@H](CO)NC(=O)[C@H](C)NC(=O)[C@@H](NC(=O)[C@H](Cc1c[nH]cn1)NC(=O)[C@H](CC(C)C)NC(=O)[C@H](C)NC(=O)[C@H](CO)NC(=O)[C@H](CC(N)=O)NC(=O)CNC(=O)[C@H](CCCCN)NC(C)=O)C(C)C)C(=O)N[C@@H](CCC(N)=O)C(=O)N[C@H](C(=O)N[C@@H](CC(C)C)C(=O)N[C@H](C(=O)N[C@@H](CCCNC(=N)N)C(=O)N[C@@H](Cc1ccc(O)cc1)C(=O)NCC(=O)N[C@@H](C)C(=O)N[C@@H](CC(N)=O)C(=O)N[C@H](C(=O)N[C@H](C(=O)N[C@@H](CCSC)C(=O)N[C@@H](CCC(N)=O)C(=O)N[C@@H](CC(N)=O)C(=O)N[C@@H](Cc1c[nH]cn1)C(=O)NCC(N)=O)[C@@H](C)O)C(C)C)C(C)C)[C@@H](C)O [ANK peptide] (Ac-KGNSALHVASQHGHLGCIQTLVRYGANVTMQNHG-NH2),2.174 ± 0.2,No binding,0.014,0.000802,,,
"EGFP-ANK: ANK peptide expressed as a fusion protein with its amino-terminal linked to EGFP protein, approximately 37 kDa ({EGFP}-KGNSALHVASQHGHLGCIQTLVRYGANVTMQNHG)",,,,,"3,5 fold",almost a four-fold increase,~2
